Legend:
Assay type in all cases: cell-based, human
[1] = test system: T4302 CD133+ cells; assay: Neurosphere formation (clonogenic survival); conditions: following 3-Gy X-ray radiation; 2 μM DAPT or 0.5 μM L685,458, 4 h pre-treatment
Method: (A) T4302 CD133+ GBM stem cells were enriched from freshly collected subcutaneous xenograft tumors, cultured in stem cell media. Cells were left unirradiated or irradiated at 3 Gy. The relative mRNA levels of Hes2 were determined by quantitative real-time PCR at the time points as indicated. (B) T4302 CD133+ cells were pre-treated with vehicle (DMSO), 2 μM DAPT or 0.5 μM L685,458 for 4 hours and irradiated as indicated. Cells were then plated to form neurospheres. Fourteen days after plating, neurospheres containing more than 50 cells were scored. […] Relative caspase 3/7 activities were determined by normalizing caspase activities to the corresponding cell numbers. […] Relative caspase 3/7 activities and clonogenic survival were determined as described above. […] Clonogenic survival was determined as described above. *: p<0.05 by Student's t-test; #: p<0.01 by one-way ANOVA.
(A, B) T4302 CD133+ cells were treated with 100 nM RO4929097 (GSI) and/or 100 nM tipifarnib (FTI) for 4 hours prior to 3 Gy radiation. (A) Cell growth on day 5 and (B) caspase 3/7 activation on day 3 were determined as described in FIG. 4. #: p<0.001 by one-way ANOVA, combo vs. single agents. […] Cell viability was determined at 5 days after treatment in comparison to vehicle-treated groups. […]

[2] = test system: T4302 CD133+ cells; assay: Caspase 3/7 activation (apoptosis); conditions: for apoptotic cell death: following 3-Gy X-ray radiation, 2 μM DAPT or 0.5 μM L685,458
Method: (A) T4302 CD133+ GBM stem cells were enriched from freshly collected subcutaneous xenograft tumors, cultured in stem cell media. Cells were left unirradiated or irradiated at 3 Gy. The relative mRNA levels of Hes2 were determined by quantitative real-time PCR at the time points as indicated. (B) T4302 CD133+ cells were pre-treated with vehicle (DMSO), 2 μM DAPT or 0.5 μM L685,458 for 4 hours and irradiated as indicated. Cells were then plated to form neurospheres. Fourteen days after plating, neurospheres containing more than 50 cells were scored. To determine the surviving fractions, the number of neurosphere at each radiation dose was normalized to that of the corresponding sham-irradiated group. (C) T4302 CD133+ cells were treated with GSIs±radiation as indicated. Relative caspase 3/7 activities were determined by normalizing caspase activities to the corresponding cell numbers. (D), (E) T4302 CD133+ cells were infected with lentivirus directing expression of non-targeting shRNA or shRNAs specific to Notch1 or Notch2 (KD-Notch1 or KD-Notch2), and selected with puromycin. Relative caspase 3/7 activities and clonogenic survival were determined as described above. (F) T4302 CD133+ cells were infected with control lentivirus or lentivirus directing expression of NICD2. Clonogenic survival was determined as described above. *: p<0.05 by Student's t-test; #: p<0.01 by one-way ANOVA.
(A, B) T4302 CD133+ cells were treated with 100 nM RO4929097 (GSI) and/or 100 nM tipifarnib (FTI) for 4 hours prior to 3 Gy radiation. (A) Cell growth on day 5 and (B) caspase 3/7 activation on day 3 were determined as described in FIG. 4. #: p<0.001 by one-way ANOVA, combo vs. single agents. (C) The effects of GSIs and FTI against growth of T4302 CD133− cells were determined as described in panel A. (D, E) T4302 CD133+ cells were treated with GSI, FTI, or a 1:1 mixture at different concentrations (ranging from 3000 nM to ˜0.5 nM, 1:3 dilution)±3 Gy radiation. Cell viability was determined at 5 days after treatment in comparison to vehicle-treated groups. […] (F) T4302 CD 133+ cells were treated by GSI±FTI with a 2-fold dilution. Neurospheres were countered on day 10, and normalized to the vehicle-treated group.

[3] = test system: CD133+ GBM stem cells; assay: Growth inhibition within 5 days, panel of glioblastoma xenograft samples; conditions: 5-day period; in combination with 3 Gy radiation
Method: CD133+ cells were derived from multiple glioblastoma xenograft samples as indicated. The growth inhibitory effects by GSI and/or FTIs were determined as described in FIG. 5.
Therefore, effective killing of GBM stem cells may delay or even prevent tumor recurrence. […] In combination with radiation, GSIs or FTIs alone reduced cell numbers by ˜75%.

[4] = test system: GBM 44; assay: Growth inhibition at day 5, spheroid GBM culture
Method: (A) Known genetic features of selected GBM samples. WT: wild type; Amp: amplification; vIII: EGFRvIII; ND: not determined. (B) Spheroid GBM cultures were derived from freshly collected subcutaneous tumors and cultured for 2 weeks in stem cell media to enrich stem cell-like cancer cells. SF7225 was maintained as a primary spheroid culture. Growth inhibition at day 5 after treatment was determined as described in FIG. 5. *: p<0.01 by Student's t-test and growth inhibition ≧30% vs. the corresponding vehicle-treated groups. #: p<0.01 and >30% growth inhibition vs. the radiation only groups.
Work is now extended to a set of subcutaneous GBM xenografts (GBM) established by Dr. Jann Sarkaria and colleagues at Mayo Clinic. These samples are known to have mutational status of EGFR, p53 and PTEN and different radiosensitivity (FIG. 8A) (69-71). Because the cancer stem cell identity of CD133+ of the Mayo Clinic samples has not been validated by functional assays, the present inventor used the neurosphere culture that is widely utilized as a surrogate of GSCs for its ability to enrich GSC-like population (72, 73). Tumor response to GSI, FTI and/or radiation was determined as growth inhibition on day 5 after treatment, with a greater than 30% cell number reduction was defined as positive response mimicking the RECIST criteria (FIG. 8B). […] Therefore, the present inventor will continuously expand the GBM panel and determine the genomic features of all samples with focus on prevalent GBM-associated aberrations. On the basis of this molecularly characterized tumor panel, the present inventor will start to explore the potential biomarkers that may predict tumor response to the combination therapy of radiation, GSI and FTI by experiments described in herein.

Row | Compound | clonogenic survival [1] | apoptotic cell death [2] | growth inhibition / reduction of cell numbers [3] [%] | growth inhibition on day 5 ([4]; 0 Gy) [%] | growth inhibition on day 5 ([4]; 3 Gy) [%] | increase of caspase 3/7 activity compared with the sham-treated group ([2]; following 3-Gy radiation, 100 nM, day 3)
1 | CC(C)C[C@H](NC(=O)[C@H](Cc1ccccc1)C[C@@H](O)[C@H](Cc1ccccc1)NC(=O)OC(C)(C)C)C(=O)N[C@@H](Cc1ccccc1)C(N)=O [L-685,458] | reduced clonogenic survival | increased apoptotic cell death | – | – | – | –
2 | Cn1cncc1[C@@](N)(c1ccc(Cl)cc1)c1ccc2c(c1)c(-c1cccc(Cl)c1)cc(=O)n2C [tipifarnib] | – | – | ~75 | 23.4±6.4 | 42±7.2 | approximately 2 fold
3 | C[C@H](NC(=O)Cc1cc(F)cc(F)c1)C(=O)N[C@H](C(=O)OC(C)(C)C)c1ccccc1 [DAPT] | reduced clonogenic survival | increased apoptotic cell death | – | – | – | –
